# Key:
# Zooplankton [1] = experiment: Field Experiment I, catfish pond, zooplankton; format: in vivo, copepods and rotifers; details: 10 ppm
# Experimental: (§1) 1, 1980, to Mar. 19, 1981.
# (§2) On July 30, 1980, most ponds had numbers of blue-green algae exceeding 2×10^6 cells/liter. These algae were predominantly Oscillatoria,Microcystis and Anacystis with smaller numbers of Nostoc, Anabaena and Lyngbya. The experimental pond had 1.2×10^6 cells/liter composed mainly of Microcystis sp. Large numbers of copepods and rotifers were present. On July 30, the pond was treated with 10 ppm potassium ricinoleate by distributing a 30% aqueous solution evenly through the water column by pump from a small boat. […] This is further substantiated by the dry weights and chlorophyll a levels.
# zooplankton [2] = experiment: Field Experiment II, catfish pond, zooplankton; format: in vivo; details: 2 ppm
# Channel catfish = experiment: Field Experiment III, taste and odor of channel catfish; format: in vivo; details: 2 ppm on 6/9/81; June 22
# Experimental: (§3) In Field Experiment III, a small two acre pond was monitored for a complete year for plankton organisms as before. Oscillatoria and Microcystis were usually the prevalent blue-green algae. On 6/9/81 the pond was experiencing a bloom consisting completely of Oscillatoria. Channel catfish from the ponds had the characteristic earthy, musty taste and odor of 4 and 4 respectively on the 0 to 5 scale. The pond was treated on this date with 2 ppm potassium ricinoleate, one of the selective algaecides, as before.
# green algae = experiment: Field Experiment II, catfish pond, green algae; format: in vivo; details: 2 ppm
# blue-green algae [3] = experiment: Field Experiment II, catfish pond, blue-green algae; format: in vivo, blue-green algae (Oscillatoria and Microcystis); details: 2 ppm
# Stigeoclonium = experiment: Selective effect on algae in test tubes (Table V), Stigeoclonium; format: cell-based; details: for cells/ml: 13 days after innoculation, average of 3 samples
# Experimental: (§4) Another laboratory experiment was run to further substantiate the selective effect of one of the algaecides, potassium ricinoleate. Two species of blue-green algae, Lyngbya and Cylindrospermum, and three species of green algae, Chlorella, Haematococcus and Stigeoclonium and Tribonema, a yellow-green alga of the division Chrysophycophyta, were treated as follows: Twenty ml test tubes of sterile BBM culture solution were innoculated with each alga. All species of algae were evaluated with three groups, control, 2.5 ppm algaecide and 7.5 ppm algaecide. Each group was run with triplicate samples.
# (§5) Controls were counted 6 days after innoculation, algaecide was added to the treatment groups seven days after innoculation and all test tubes were counted thirteen days after innoculation. The results are shown in Table V. After seven days, there was a 31% reduction in the Lyngbya cultures at 2.5 ppm algaecide and a 40% reduction at 7.5 ppm. After seven days, there was a 60% reduction in Cylindrospermum cultures at 2.5 ppm algaecide and a 72% reduction at 7.5 ppm. […] After thirteen days, there was a 55% reduction in numbers at both 2.5 ppm and 7.5 ppm. After twenty days there was a 27% reduction at both concentrations. […] They are, like blue-green algae, often associated with taste and odor problems.
# blue-green algae [4] = experiment: Field Experiment I, catfish pond, blue-green algae; format: in vivo, blue-green algae (mainly Microcystis sp.); details: 10 ppm
# Experimental: as §1, §2
# [5] = test system: sewage containing mostly green algae; experiment: Sewage treatment test 1, mostly green algae; details: for cells/liter: after six days of aeration
# Experimental: (§6) Two experiments were performed on sewage to further illustrate the utility of these algaecides. In the first experiment, sewage containing mostly green algae was treated with relatively high concentrations of potassium ricinoleate.
# Rhizochrysis = experiment: Sewage treatment test 1, Rhizochrysis; details: six days after treatment
# Experimental: as §6
# Chlorella = experiment: Selective effect on algae in test tubes (Table V), Chlorella; format: cell-based; details: for cells/ml: 13 days after innoculation, average of 3 samples
# Experimental: as §4, §5
# Lyngbya = experiment: Selective effect on algae in test tubes (Table V), Lyngbya; format: cell-based; details: for cells/ml: 13 days after innoculation, average of 3 samples
# Experimental: as §4, §5
# zooplankton [6] = experiment: Field Experiment III, pond, zooplankton; format: in vivo; details: 2 ppm on 6/9/81
# Experimental: as §3
# [7] = 7/31 post-treatment (treated July 30, 1980)
# [8] = 11/21 post-treatment (normal winter reduction)
# [9] = 5/26/81 B post-treat, 4 p.m., Deep, prevalent Mic
# [10] = 5/26/81 C post-treat, 4 p.m., Shallow, prevalent Ped
# [11] = 5/27/81 D, 9:40 p.m., Deep, prevalent Ped
# [12] = 5/27/81 E, 9:40 p.m., Shallow, prevalent Ped
# [13] = 5/28/81 F, 7 a.m., prevalent Ped
# [14] = 5/28/81 G, 11 a.m., prevalent Ped
# [15] = 2.5 and 7.5 ppm, after seven days
# [16] = 168 h, read-out: reduction in cultures
structure (smiles),measurement,setting,value
CCCCCC[C@@H](O)C/C=C\CCCCCCCC(=O)[O-].[K+],Zooplankton #/Liter,Zooplankton [1]; [7],2531 #/Liter
same,Zooplankton #/Liter,Zooplankton [1]; 8/1 post-treatment,2500 #/Liter
same,Zooplankton #/Liter,Zooplankton [1]; 8/6 post-treatment,4050 #/Liter
same,Zooplankton #/Liter,Zooplankton [1]; 8/19 post-treatment,2025 #/Liter
same,Zooplankton #/Liter,Zooplankton [1]; 9/6 post-treatment,4050 #/Liter
same,Zooplankton #/Liter,Zooplankton [1]; 9/23 post-treatment,506 #/Liter
same,Zooplankton #/Liter,Zooplankton [1]; [8],1012 #/Liter
same,Zooplankton #/Liter,Zooplankton [1]; 12/14 post-treatment,1518 #/Liter
same,numbers of zooplankton,Zooplankton [1]; seven days after treatment,essentially unchanged or increased in numbers
same,Zoo #'s/liter,"zooplankton [2]; 5/26/81 B post-treat, 4 p.m., Deep",755 #'s/liter
same,Zoo #'s/liter,"zooplankton [2]; 5/26/81 C post-treat, 4 p.m., Shallow",2270 #'s/liter
same,Zoo #'s/liter,"zooplankton [2]; 5/27/81 D, 9:40 p.m., Deep",0 #'s/liter
same,Zoo #'s/liter,"zooplankton [2]; 5/27/81 E, 9:40 p.m., Shallow",1510 #'s/liter
same,Zoo #'s/liter,"zooplankton [2]; 5/28/81 F, 7 a.m.",756 #'s/liter
same,Zoo #'s/liter,"zooplankton [2]; 5/28/81 G, 11 a.m.",2270 #'s/liter
same,zooplankton after treatment,"zooplankton [2]; through June, 1981",remained unchanged
same,"earthy, musty taste and odor of sample fish",Channel catfish,"lost all of the earthy, musty taste and odor"
same,Cells/liter green algae,green algae; [9],3.2 × 10^5 Cells/liter
same,Cells/liter green algae,green algae; [10],2.0 × 10^5 Cells/liter
same,Cells/liter green algae,green algae; [11],2.6 × 10^5 Cells/liter
same,Cells/liter green algae,green algae; [12],1.09 × 10^5 Cells/liter
same,Cells/liter green algae,green algae; [13],1.3 × 10^5 Cells/liter
same,Cells/liter green algae,green algae; [14],1.1 × 10^5 Cells/liter
same,green algae after treatment,"green algae; through June, 1981",remained unchanged
same,Cells/liter bluegreen algae,blue-green algae [3]; [9],4.2 × 10^5 Cells/liter
same,Cells/liter bluegreen algae,blue-green algae [3]; [10],0 Cells/liter
same,Cells/liter bluegreen algae,blue-green algae [3]; [11],1.18 × 10^4 Cells/liter
same,Cells/liter bluegreen algae,blue-green algae [3]; [12],0 Cells/liter
same,Cells/liter bluegreen algae,blue-green algae [3]; [13],5.9 × 10^3 Cells/liter
same,Cells/liter bluegreen algae,blue-green algae [3]; [14],0 Cells/liter
same,blue-green algae after treatment,blue-green algae [3]; after two days,essentially no blue-green algae present
same,effect,Stigeoclonium; [15],remained unchanged
same,cells/ml,Stigeoclonium; 2.5 ppm,1900 cells/ml
same,cells/ml,Stigeoclonium; 7.5 ppm,1900 cells/ml
same,Cells/Liter of bluegreen algae,blue-green algae [4]; [7],3.2 × 10^5 Cells/Liter
same,Cells/Liter of bluegreen algae,blue-green algae [4]; 8/1 post-treatment,1.8 × 10^5 Cells/Liter
same,Cells/Liter of bluegreen algae,blue-green algae [4]; 8/6 post-treatment,1.0 × 10^5 Cells/Liter
same,Cells/Liter of bluegreen algae,blue-green algae [4]; 8/19 post-treatment,5.4 × 10^5 Cells/Liter
same,Cells/Liter of bluegreen algae,blue-green algae [4]; 9/6 post-treatment,3.8 × 10^5 Cells/Liter
same,Cells/Liter of bluegreen algae,blue-green algae [4]; 9/23 post-treatment,1.9 × 10^6 Cells/Liter
same,Cells/Liter of bluegreen algae,blue-green algae [4]; [8],0 Cells/Liter
same,Cells/Liter of bluegreen algae,blue-green algae [4]; 12/14 post-treatment,3.0 × 10^4 Cells/Liter
same,blue-green algae killed,blue-green algae [4]; seven days after treatment,93%
same,cells/liter,[5]; 18.4 ppm,1.91 × 10^5 cells/liter
same,cells/liter,[5]; 46.0 ppm,1.33 × 10^5 cells/liter
same,cells/liter,[5]; 92.0 ppm,2.30 × 10^5 cells/liter
same,cells/liter,[5]; 184.1 ppm,2.72 × 10^5 cells/liter
same,effect on green algae,[5]; six days after treatment,somewhat stimulated
same,presence of Rhizochrysis,Rhizochrysis,completely absent
same,effect,Chlorella; [15],slightly inhibited
same,cells/ml,Chlorella; 2.5 ppm,44000 cells/ml
same,cells/ml,Chlorella; 7.5 ppm,49000 cells/ml
same,cells/ml,Lyngbya; 2.5 ppm,2340 cells/ml
same,cells/ml,Lyngbya; 7.5 ppm,2010 cells/ml
same,inhibition of growth at 2.5 ppm,Lyngbya; [16],31%
same,inhibition of growth at 7.5 ppm,Lyngbya; [16],40%
same,Zoo #'s/liter,zooplankton [6]; 6/10/81,2251 #'s/liter
same,Zoo #'s/liter,zooplankton [6]; 6/12/81,4948 #'s/liter
same,Zoo #'s/liter,zooplankton [6]; 6/22/81,4541 #'s/liter

# From US4398937A, “Selective algaecides for control of cyanochloronta” (The University of Southern Mississippi, priority 1981, dated 1983)
